Reference: patent US20100261679A1 (priority 2007, published 2010)

What was measured:
cKIT = target: T1, cKIT (Homo sapiens, UniProt P10721); assay: Inhibition of cKIT kinase in an in vitro biochemical assay (alphascreen); settings: tested at about 1 μM
T1 construct: The kinase domain of cKIT was assayed in 50 mM Hepes; purchased Upstate 14-559
Experimental: (§1) The IC50 values for the inhibition of RTKs were determined in the alphascreen format measuring the inhibition by compound of phosphate transfer to a substrate by the respective enzyme. Briefly, the respective RTK domain purchased as human recombinant protein (cKIT Upstate #14-559, PDGFRb Invitrogen #P3082) were incubated with serial dilutions of compound in the presence of substrate and ATP concentrations within 3 times the Km of the enzyme.
(§2) The kinase domain of cKIT was assayed in 50 mM Hepes, pH=7.5, 5 mM MgCl2, 10 mM MnCl2, 1 mM DTT, 0.1% BSA with 0.06 uM biotinylated peptide substrate (GGLFDDPSYVNVQNL-NH2) and 15 μM ATP (ATP KM apparent =15 μM). The kinase domain of PDGFRβ was assayed in 50 mM Hepes, pH=7.5, 20 mM MgCl2, 1 mM DTT, 0.1% BSA with 0.1 μM biotinylated peptide substrate (GGLFDDPSYVNVQNL-NH2) and 10 μM ATP (ATP KM apparent=25 μM). Reactions were incubated at room temperature for 3 to 4 hr and stopped with buffer (20 mM EDTA, 0.01% Tween-20 for both PDGFRβ and cKIT). Alphascreen PY20 beads were added to the stopped cKIT reactions and PY20 Ab/Protein A Alphascreen beads were added to the PDGFRβ stopped reactions. Both reactions were incubated overnight and read on the Alphascreen reader. The concentration of compound for 50% inhibition (IC50) was calculated employing non-linear regression using XL-Fit data analysis software. As a control compound, staurosporine is run in every assay and a Z′>0.5 is required to validate results.

[1] = target: T2, cytoplasmic domain of the human CSF-1R (Homo sapiens, UniProt P07333); assay: In vitro kinase assay for CSF-1R (AlphaScreen); format: biochemical; settings: tested at about 1 μM
T2 construct: Recombinant protein corresponding to the cytoplasmic domain of the human CSF-1R; purchased Invitrogen Corporation, Carlsbad, Calif; U.S.A. PV3249
T2 sequence (P07333 539-972 limits assumed): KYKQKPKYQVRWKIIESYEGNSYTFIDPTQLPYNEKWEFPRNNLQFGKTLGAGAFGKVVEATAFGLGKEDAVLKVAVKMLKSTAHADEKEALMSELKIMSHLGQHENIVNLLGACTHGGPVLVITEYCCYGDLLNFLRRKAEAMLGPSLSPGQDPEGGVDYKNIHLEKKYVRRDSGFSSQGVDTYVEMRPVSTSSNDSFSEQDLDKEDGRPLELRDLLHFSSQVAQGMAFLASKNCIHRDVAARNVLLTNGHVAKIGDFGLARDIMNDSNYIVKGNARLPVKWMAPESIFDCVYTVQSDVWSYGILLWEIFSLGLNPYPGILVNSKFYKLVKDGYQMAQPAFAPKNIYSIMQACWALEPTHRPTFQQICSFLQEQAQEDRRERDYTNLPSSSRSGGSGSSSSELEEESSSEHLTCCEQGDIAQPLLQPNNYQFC
Experimental: The kinase activity of various protein tyrosine kinases can be measured by providing ATP and a suitable peptide or protein tyrosine-containing substrate, and assaying the transfer of phosphate moiety to the tyrosine residue. Recombinant protein corresponding to the cytoplasmic domain of the human CSF-1R was purchased from Invitrogen Corporation, Carlsbad, Calif. U.S.A. (#PV3249). For each assay, test compounds were serially diluted, starting at 25 μM with 3 fold dilutions, in DMSO in 384 well plates then mixed with an appropriate kinase reaction buffer consisting of 50 mM Hepes, 5 mM MgCl2, 10 mM MnCl2, 0.1% BSA, pH 7.5, 1.0 mM dithiothreitol, 0.01% Tween 80 plus […]. Kinase protein and an appropriate biotinylated peptide substrate at 50 nM were added to give a final volume of 20 μL, reactions were incubated for 2 hours at room temperature and stopped by the addition of 10 μL of 45 mM EDTA, 50 mM Hepes pH 7.5. Added to the stopped reaction mix was 30 μL of PT66 Alphascreen beads (Perkin Elmer, Boston, Mass., U.S.A.). The reaction was incubated overnight and read on the Envision (Perkin Elmer). Phosphorylated peptide product was measured with the AlphaScreen system (Perkin Elmer) using acceptor beads coated with anti-phosphotyrosine antibody PT66 and donor beads coated with streptavidin that emit a fluorescent signal at the 520-620 nm emission wave length if in close proximity. The concentration of each compound for 50% inhibition (IC50) was calculated by non-linear regression using XL Fit data analysis software.
CSF-1R kinase was assayed in 50 mM Hepes pH 7.0, 5 mM MgCl2, 10 mM MnCl2, 1 mM DTT, 1 mg/mL BSA, 1.0 μM ATP, and 0.05 μM biotin-GGGGRPRAATF-NH2 (SEQ ID NO:2) peptide substrate. CSF-1R kinase was added at final concentration of 4 nM.

PDGFRb = target: T3, PDGFRb (Homo sapiens, UniProt P09619); assay: Inhibition of PDGFRb kinase in an in vitro biochemical assay (alphascreen); settings: tested at about 1 μM; read-out: PDGFR % inhibition at 1 μM
T3 construct: The kinase domain of PDGFRβ was assayed in 50 mM Hepes; purchased Invitrogen P3082
T3 sequence (P09619 600-962 limits assumed): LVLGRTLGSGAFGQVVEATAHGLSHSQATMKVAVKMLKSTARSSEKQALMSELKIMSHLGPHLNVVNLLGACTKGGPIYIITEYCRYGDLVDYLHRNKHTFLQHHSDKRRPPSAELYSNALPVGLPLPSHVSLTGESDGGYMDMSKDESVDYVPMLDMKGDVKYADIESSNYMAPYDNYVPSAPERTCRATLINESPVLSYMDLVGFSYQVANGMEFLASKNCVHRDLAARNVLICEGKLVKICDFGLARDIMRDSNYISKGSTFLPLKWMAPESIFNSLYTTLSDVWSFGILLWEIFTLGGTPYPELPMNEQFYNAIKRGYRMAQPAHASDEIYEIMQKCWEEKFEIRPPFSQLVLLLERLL
Experimental: as §1, §2

T1 sequence (P10721 589-937 limits assumed): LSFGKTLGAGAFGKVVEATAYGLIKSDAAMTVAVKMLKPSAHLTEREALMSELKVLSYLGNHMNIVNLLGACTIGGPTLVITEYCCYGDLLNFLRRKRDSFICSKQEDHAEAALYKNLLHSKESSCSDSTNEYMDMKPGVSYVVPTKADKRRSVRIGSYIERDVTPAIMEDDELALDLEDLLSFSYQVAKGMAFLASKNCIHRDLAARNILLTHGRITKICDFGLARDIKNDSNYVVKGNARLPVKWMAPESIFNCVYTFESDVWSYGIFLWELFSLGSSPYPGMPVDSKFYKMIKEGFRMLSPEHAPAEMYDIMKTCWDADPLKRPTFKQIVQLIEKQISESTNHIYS

Row | SMILES | inhibition at 1 µM (cKIT) [%] | inhibition at 1 µM [1] [%] | inhibition at 1 µM (PDGFRb) [%]
1 | CC[C@H](C)[C@@H](CO)Nc1ncc2cc(Oc3ccnc(C(=O)NC)c3)ccc2n1 [Cmpd 14, 4-(2-((2S,3S)-1-hydroxy-3-methylpentan-2-ylamino)quinazolin-6-yloxy)-N-methylpicolinamide] | 19 | 99 | 15
2 | CNC(=O)c1cc(Oc2ccc3nc(N[C@@H](C)C4CCCCC4)ncc3c2)ccn1 [Cmpd 16, (S)-4-(2-(1-cyclohexylethylamino)quinazolin-6-yloxy)-N-methylpicolinamide] | 58 | 100 | 26
3 | CNC(=O)c1cc(Oc2ccc3nc(N[C@@H](CO)C4CCCCC4)ncc3c2)ccn1 [Cmpd 17, (R)-4-(2-(1-cyclohexyl-2-hydroxyethylamino)quinazolin-6-yloxy)-N-methylpicolinamide] | 61 | 100 | 38
4 | CNC(=O)c1cc(Oc2ccc3nc(N[C@H](CO)C4CCCCC4)ncc3c2)ccn1 [Cmpd 18, (S)-4-(2-(1-cyclohexyl-2-hydroxyethylamino)quinazolin-6-yloxy)-N-methylpicolinamide] | 30 | 99 | 31
5 | CNC(=O)c1cc(Oc2ccc3nc(N[C@@H]4c5ccccc5C[C@@H]4O)ncc3c2)ccn1 [Cmpd 19, 4-(2-((1R,2S)-2-hydroxy-2,3-dihydro-1H-inden-1-ylamino)quinazolin-6-yloxy)-N-methylpicolinamide] | 30 | 100 | 3
6 | CNC(=O)c1cc(Oc2ccc3nc(N[C@H]4c5ccccc5C[C@H]4O)ncc3c2)ccn1 [Cmpd 20, 4-(2-((1S,2R)-2-hydroxy-2,3-dihydro-1H-inden-1-ylamino)quinazolin-6-yloxy)-N-methylpicolinamide] | 60 | 100 | 25
7 | Cn1cc(-c2cc(Oc3ccc4nc(NCC5CCCCC5)ncc4c3)ccn2)cn1 [Cmpd 21, N-(cyclohexylmethyl)-6-(2-(1-methyl-1H-pyrazol-4-yl)pyridin-4-yloxy)quinazolin-2-amine] | 100 | 100 | 91
8 | c1ccc(N2CCOCC2)c(Nc2ncc3cc(Oc4ccncc4)ccc3n2)c1 [Cmpd 28, N-(2-morpholinophenyl)-6-(pyridin-4-yloxy)quinazolin-2-amine] | 8 | 52 | < 1
9 | CNC(=O)c1cc(Oc2ccc3nc(N[C@@H]4CCCC[C@H]4O)ccc3c2)ccn1 [Example 1] | 51 | 100 | 33
10 | CNC(=O)c1cc(Oc2ccc3nc(N[C@H]4CCCC[C@@H]4O)ccc3c2)ccn1 [Example 2] | 21 | 100 | 32
11 | CNC(=O)c1cc(Oc2ccc3nc(N[C@@H](CO)C4CCCCC4)ccc3c2)ccn1 [Example 7] | 31 | 98 | 16
12 | CNC(=O)c1cc(Oc2ccc3nc(N[C@@H]4CCCC[C@H]4O)ncc3c2)ccn1 [Example 11] | 23 | 99 | 21

Now from value to molecule:

Row | inhibition at 1 µM (cKIT) [%] | inhibition at 1 µM [1] [%] | inhibition at 1 µM (PDGFRb) [%] | SMILES
13 | 39 | 100 | 39 | CNC(=O)c1cc(Oc2ccc3nc(N[C@H]4CCCC[C@@H]4O)ncc3c2)ccn1 [Example 12]
14 | 28 | 88 | 24 | CNC(=O)c1cc(Oc2ccc3nc(N[C@H](CO)Cc4ccccc4)ncc3c2)ccn1 [Example 13]
15 | 50 | 100 | 26 | CNC(=O)c1cc(Oc2ccc3nc(N[C@H](C)C4CCCCC4)ncc3c2)ccn1 [Example 15, (R)-4-(2-(1-cyclohexylethylamino)quinazolin-6-yloxy)-N-methylpicolinamide]
16 | 9 | 90 | 1 | Nc1cc(Oc2ccc3nc(Nc4ccccc4N4CCOCC4)ncc3c2)ccn1 [Example 29, 6-(2-aminopyridin-4-yloxy)-N-(2-morpholinophenyl)quinazolin-2-amine]
17 | 8 | 67 | < 1 | CN(C)C(=O)c1cc(Oc2ccc3nc(Nc4ccccc4N4CCOCC4)ncc3c2)ccn1 [Example 31, N,N-dimethyl-4-(2-(2-morpholinophenylamino)quinazolin-6-yloxy)picolinamide]
18 | 7 | 99 | < 1 | CC(=O)Nc1cc(Oc2ccc3nc(Nc4ccccc4N4CCOCC4)ncc3c2)ccn1 [Example 32, N-(4-(2-(2-morpholinophenylamino)quinazolin-6-yloxy)pyridin-2-yl)acetamide]
19 | 14 | 84 | < 1 | NC(=O)c1cc(Oc2ccc3nc(Nc4ccccc4N4CCOCC4)ncc3c2)ccn1 [Example 33, 4-(2-(2-morpholinophenylamino)quinazolin-6-yloxy)picolinamide]
20 | 14 | 80 | 2 | CCNC(=O)c1cc(Oc2ccc3nc(Nc4ccccc4N4CCOCC4)ncc3c2)ccn1 [Example 34, N-ethyl-4-(2-(2-morpholinophenylamino)quinazolin-6-yloxy)picolinamide]
21 | 7 | 71 | < 1 | CNC(=O)c1cc(Oc2ccc3nc(NCCN4CCOCC4)ncc3c2)ccn1 [Example 35, N-methyl-4-(2-(2-morpholinoethylamino)quinazolin-6-yloxy)picolinamide]
22 | 16 | 99 | < 1 | CNC(=O)c1cc(Oc2ccc3nc(NCC4(N5CCOCC5)CCCCC4)ncc3c2)ccn1 [Example 37, N-methyl-4-(2-((1-morpholinocyclohexyl)methylamino)quinazolin-6-yloxy)picolinamide]
23 | 92 | 99 | 46 | CNC(=O)c1cc(Oc2ccc3nc(N[C@H](C)c4ccccc4)ncc3c2)ccn1 [Example 38, (R)-N-methyl-4-(2-(1-phenylethylamino)quinazolin-6-yloxy)picolinamide]
24 | 10 | 99 | 52 | CNC(=O)c1cc(Oc2ccc3nc(NCC4CCCCC4)ncc3c2)ccn1 [Example 39, 4-(2-(cyclohexylmethylamino)quinazolin-6-yloxy)-N-methylpicolinamide]
